Measured values as given in patent publication US9765070B2, “Substituted oxopyridine derivatives” (Bayer Pharma Aktiengesellschaft, priority 2013, dated 2017).

Tests used:
human plasma kallikrein = human plasma kallikrein (Homo sapiens (Human), UniProt P03952); experiment: Determination of the plasma kallikrein activity (fluorogenic substrate H-Pro-Phe-Arg-AMC); type: biochemical; conditions: plasma kallikrein from Kordia 0.6 nM, 15 min preincubation, 30 min at 22° C., fluorescence
Procedure: a.5) Determination of the Plasma Kallikrein Activity
(§1) To determine the plasma kallikrein inhibition of the substances according to the invention, a biochemical test system is used which utilizes the reaction of a peptidic plasma kallikrein substrate to determine the enzymatic activity of human plasma kallikrein. Here, plasma kallikrein cleaves from the peptic plasma kallikrein substrate the C-terminal aminomethylcoumarin (AMC), the fluorescence of which is measured. The determinations are carried out in microtitre plates.
In each case 1 μl of the diluted substance solutions is placed into the wells of white microtitre plates from Greiner (384 wells). 20 μl of assay buffer (50 mM Tris/HCl pH 7.4; 100 mM sodium chloride solution; 5 mM of calcium chloride solution; 0.1% of bovine serum albumin) and 20 μl of plasma kallikrein from Kordia (0.6 nM in assay buffer) are then added successively. After 15 min of incubation, the enzyme reaction is started by addition of 20 μl of the substrate H-Pro-Phe-Arg-AMC dissolved in assay buffer (10 μM in assay buffer) from Bachem, the mixture is incubated at room temperature (22° C.) for 30 min and fluorescence is then measured (excitation: 360 nm, emission: 460 nm). The measured emissions of the test batches with test substance are compared to those of control batches without test substance (only dimethyl sulphoxide instead of test substance in dimethyl sulphoxide), and IC50 values are calculated from the concentration/activity relationships.

human factor XIa = human factor XIa (Homo sapiens (Human), UniProt P03951); experiment: Measurement of FXIa inhibition (fluorogenic peptide substrate Boc-Glu(OBzl)-Ala-Arg-AMC); type: biochemical; conditions: factor XIa from Kordia 0.45 nM, 15 min preincubation, 30 min at 22° C., fluorescence
Procedure: a.1) Measurement of FXIa Inhibition
as §1, with “The factor XIa” for “To determine the plasma kallikrein”, “invention is determined using” for “invention,”, “system” for “system is used”, “factor XIa” for “plasma kallikrein”, “factor XIa.” for “plasma kallikrein.”
In each case 1 μl of the diluted substance solutions is placed into the wells of white microtitre plates from Greiner (384 wells). 20 μl of assay buffer (50 mM of Tris/HCl pH 7.4; 100 mM of sodium chloride; 5 mM of calcium chloride; 0.1% of bovine serum albumin) and 20 μl of factor XIa from Kordia (0.45 nM in assay buffer) are then added successively. After 15 min of incubation, the enzyme reaction is started by addition of 20 μl of the factor XIa substrate Boc-Glu(OBzl)-Ala-Arg-AMC dissolved in assay buffer (10 μM in assay buffer) from Bachem, the mixture is incubated at room temperature (22° C.) for 30 min and fluorescence is then measured (excitation: 360 nm, emission: 460 nm). The measured emissions of the test batches with test substance are compared to those of control batches without test substance (only dimethyl sulphoxide instead of test substance in dimethyl sulphoxide), and IC50 values are calculated from the concentration/activity relationships.

Sequence of human plasma kallikrein (P03952 391-638): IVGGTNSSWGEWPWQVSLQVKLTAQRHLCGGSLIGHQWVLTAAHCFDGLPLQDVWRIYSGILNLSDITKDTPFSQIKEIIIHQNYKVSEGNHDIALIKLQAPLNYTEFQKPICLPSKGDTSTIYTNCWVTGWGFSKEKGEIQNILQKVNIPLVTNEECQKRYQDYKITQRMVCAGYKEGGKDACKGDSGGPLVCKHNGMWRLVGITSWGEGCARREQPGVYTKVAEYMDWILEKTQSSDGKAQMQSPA
Sequence of human plasma kallikrein (P03952 20-390 partner): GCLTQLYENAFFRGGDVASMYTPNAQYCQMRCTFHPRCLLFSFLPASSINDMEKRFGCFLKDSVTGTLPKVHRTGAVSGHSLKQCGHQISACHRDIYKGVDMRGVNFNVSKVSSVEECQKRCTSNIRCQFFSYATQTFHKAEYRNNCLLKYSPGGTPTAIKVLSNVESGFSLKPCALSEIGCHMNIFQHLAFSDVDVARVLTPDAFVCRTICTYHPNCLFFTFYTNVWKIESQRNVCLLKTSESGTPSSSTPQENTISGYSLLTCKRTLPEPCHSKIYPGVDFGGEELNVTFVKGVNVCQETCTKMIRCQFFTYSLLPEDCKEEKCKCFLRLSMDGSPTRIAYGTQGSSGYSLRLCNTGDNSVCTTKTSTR
Sequence of human factor XIa (P03951 388-625): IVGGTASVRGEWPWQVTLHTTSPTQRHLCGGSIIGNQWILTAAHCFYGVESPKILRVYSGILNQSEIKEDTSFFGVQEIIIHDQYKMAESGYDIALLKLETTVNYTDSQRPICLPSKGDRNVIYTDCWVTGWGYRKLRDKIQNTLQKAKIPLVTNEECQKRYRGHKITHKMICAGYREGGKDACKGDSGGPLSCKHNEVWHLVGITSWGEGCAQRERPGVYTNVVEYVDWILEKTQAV
Sequence of human factor XIa (P03951 19-387 partner): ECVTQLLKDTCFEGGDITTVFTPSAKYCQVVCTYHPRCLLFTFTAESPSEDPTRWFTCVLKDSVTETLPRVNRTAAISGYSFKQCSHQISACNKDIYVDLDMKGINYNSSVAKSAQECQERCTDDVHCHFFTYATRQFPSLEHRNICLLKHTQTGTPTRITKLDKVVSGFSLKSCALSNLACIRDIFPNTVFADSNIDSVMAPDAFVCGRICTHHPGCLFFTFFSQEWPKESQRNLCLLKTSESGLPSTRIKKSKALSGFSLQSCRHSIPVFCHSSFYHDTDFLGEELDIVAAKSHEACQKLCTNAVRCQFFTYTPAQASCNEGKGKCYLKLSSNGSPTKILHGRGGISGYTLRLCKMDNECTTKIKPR

IC50 (human plasma kallikrein)	IC50 (human factor XIa)	SMILES
120 nM	96 nM	N#Cc1ccc(Cl)cc1-c1cc(=O)n(C(Cc2cnco2)C(=O)Nc2ccc3nccn3c2)cc1Cl (racemic) [Example 30, 2-[5-Chloro-4-(5-chloro-2-cyanophenyl)-2-oxopyridin-1(2H)-yl]-N-(imidazo[1,2-a]pyridin-6-yl)-3-(1,3-oxazol-5-yl)propanamide (racemate)]
970 nM	500 nM	N#Cc1ccc(Cl)cc1-c1cc(=O)n(C(Cc2cnco2)C(=O)Nc2ccc3nccn3c2)cc1OC(F)F (racemic) [Example 31, 2-[4-(5-Chloro-2-cyanophenyl)-5-(difluoromethoxy)-2-oxopyridin-1(2H)-yl]-N-(imidazo[1,2-a]pyridin-6-yl)-3-(1,3-oxazol-5-yl)propanamide (racemate)]
	92 nM	COc1cn(C(Cc2cocn2)C(=O)Nc2ccc3nccn3c2)c(=O)cc1-c1cc(Cl)ccc1C#N (racemic) [Example 32, 2-[4-(5-Chloro-2-cyanophenyl)-5-methoxy-2-oxopyridin-1(2H)-yl]-N-(imidazo[1,2-a]pyridin-6-yl)-3-(1,3-oxazol-4-yl)propanamide (racemate)]
250 nM	310 nM	N#Cc1ccc(Cl)cc1-c1cc(=O)n(C(Cc2cocn2)C(=O)Nc2ccc3nccn3c2)cc1Cl (racemic) [Example 33, 2-[5-Chloro-4-(5-chloro-2-cyanophenyl)-2-oxopyridin-1(2H)-yl]-N-(imidazo[1,2-a]pyridin-6-yl)-3-(1,3-oxazol-4-yl)propanamide (racemate)]
3.2 nM		COCCC(C(=O)Nc1ccn2nccc2c1)n1cc(OC)c(-c2cc(Cl)ccc2C#N)cc1=O (single isomer, unassigned; enantiomer 1) [Example 36, 2-[4-(5-Chloro-2-cyanophenyl)-5-methoxy-2-oxopyridin-1(2H)-yl]-4-methoxy-N-(pyrazolo[1,5-a]pyridin-5-yl)butanamide (enantiomer 1)]
61 nM		COc1cn(CC(=O)Nc2ccc3nc(C(=O)O)cn3c2)c(=O)cc1-c1cc(Cl)ccc1C#N [Example 6, 6-({[4-(5-Chloro-2-cyanophenyl)-5-methoxy-2-oxopyridin-1(2H)-yl]acetyl}amino)imidazo[1,2-a]pyridine-2-carboxylic acid]
	380 nM	O=C(Cn1cc(Cl)c(-c2cc(Cl)ccc2OC(F)F)cc1=O)Nc1ccc2nc(C(=O)O)cn2c1 [Example 8, 6-[({5-Chloro-4-[5-chloro-2-(difluoromethoxy)phenyl]-2-oxopyridin-1(2H)-yl}acetyl)amino]imidazo[1,2-a]pyridine-2-carboxylic acid]
